Reference: paper PMC4783402 (Frontiers in Microbiology, 2016)

How the values were obtained:
[1] = system: L. pneumophila biofilm; type: cell-based, Legionella pneumophila 155; conditions: 0.1 mM polyamino-phenolic ligand, 3-day-old biofilm treated 3 days, tap water, 37°C
[2] = in vitro; conditions: human
[3] = system: L. pneumophila/E. coli biofilm; type: cell-based, Legionella pneumophila 155 / Escherichia coli; conditions: 0.1 mM polyamino-phenolic ligand, 3-day-old biofilm treated 3 days
[4] = system: L. pneumophila biofilm; type: cell-based, Legionella pneumophila 155; conditions: 0.1 mM polyamino-phenolic ligand added at inoculum, 3-day contact time
[5] = system: L. pneumophila/A. hydrophila biofilm; type: cell-based, Legionella pneumophila 155 / Aeromonas hydrophila; conditions: 0.1 mM polyamino-phenolic ligand added at inoculum, 3-day contact time
[6] = system: L. pneumophila/E. coli biofilm; type: cell-based, Legionella pneumophila 155 / Escherichia coli; conditions: 0.1 mM polyamino-phenolic ligand added at inoculum, 3-day contact time
[7] = system: planktonic A. hydrophila; type: cell-based, Aeromonas hydrophila
[8] = system: planktonic E. coli; type: cell-based, Escherichia coli
[9] = system: planktonic L. pneumophila; type: cell-based, Legionella pneumophila; conditions: 0.1 mM polyamino-phenolic ligand, 24 h, PBS, 37°C
[10] = system: planktonic P. aeruginosa; type: cell-based, Pseudomonas aeruginosa
[11] = system: planktonic K. pneumoniae; type: cell-based, Klebsiella pneumoniae
[12] = system: L. pneumophila/A. hydrophila biofilm; type: cell-based, Legionella pneumophila 155 / Aeromonas hydrophila; conditions: 0.1 mM polyamino-phenolic ligand, 3-day-old biofilm treated 3 days
[13] = system: L. pneumophila/K. pneumonia biofilm; type: cell-based, Legionella pneumophila 155 / Klebsiella pneumoniae; conditions: 0.1 mM polyamino-phenolic ligand, 3-day-old biofilm treated 3 days
[14] = system: L. pneumophila/P. aeruginosa biofilm; type: cell-based, Legionella pneumophila 155 / Pseudomonas aeruginosa; conditions: 0.1 mM polyamino-phenolic ligand added at inoculum, 3-day contact time
[15] = system: L. pneumophila/K. pneumoniae biofilm; type: cell-based, Legionella pneumophila 155 / Klebsiella pneumoniae; conditions: 0.1 mM polyamino-phenolic ligand added at inoculum, 3-day contact time
[16] = system: five-species biofilm (L. pneumophila/P. aeruginosa/A. hydrophila/E. coli/K. pneumoniae); type: cell-based; conditions: 0.1 mM polyamino-phenolic ligand added at inoculum, 3-day contact time

| Compound | biofilm reduction (degradation) [1] [%] | viability [2] [%] | effect on number of viable planktonic cells [7] | effect on number of viable planktonic cells [8] | effect on number of viable planktonic cells [9] | effect on number of viable planktonic cells [10] | effect on number of viable planktonic cells [11] | also measured |
| --- | --- | --- | --- | --- | --- | --- | --- | --- |
| NCCN(CCN)Cc1cc(-c2ccc(O)c(CN(CCN)CCN)c2)ccc1O [Dimo, 3,3′-bis(N,N-bis(2-aminoethyl)aminomethyl)-4,4′-dihydroxybiphenyl] | 27 | 58 | – | – | – | – | – | – |
| Oc1c2cccc1CNCCN(CCNCCCNCCNCCCNCCN1CCNCc3cccc(c3O)CNCC1)CCNC2 [Double Macrophen, 1,16-bis(3,6,9-triaza-15-hydroxybicyclo(9.3.1)pentadeca-11,13,1^15-trien-6-yl)-3,7,10,14-tetraazahexadecane] | 32 | 95 | did not reduce the number of viable cells | did not reduce the number of viable cells | did not reduce the number of viable cells | did not reduce the number of viable cells | did not reduce the number of viable cells | biofilm reduction (degradation) [3]: 39%; biofilm formation inhibition [4]: 48%; biofilm formation inhibition [5]: 34%; biofilm formation inhibition [6]: 42% |
| NCCNCCNCc1cc(-c2ccc(O)c(CNCCNCCN)c2)ccc1O [Bisom, 3,3′-bis(N-(N-(2-aminoethyl)-2-aminoethyl)aminomethyl)-4,4′-dihydroxybiphenyl] | – | 72 | – | – | – | – | – | – |
| NCCN(CCN)Cc1cccc(-c2cccc(CN(CCN)CCN)c2O)c1O [Bfden, 3,3′-bis(N,N-bis(2-aminoethyl)aminomethyl)-2,2′-dihydroxybiphenyl] | – | 97 | – | – | – | – | – | – |
| NCCN1CCNCc2cccc(c2O)CNCC1 [Macrophen, 2-(3,6,9-triaza-15-hydroxybicyclo(9.3.1)pentadeca-11,13,1^15-trien-6-yl)ethylamine] | 27 | – | did not reduce the number of viable cells | did not reduce the number of viable cells | did not reduce the number of viable cells | did not reduce the number of viable cells | did not reduce the number of viable cells | biofilm reduction (degradation) [12]: 33%; biofilm reduction (degradation) [13]: 33%; biofilm formation inhibition [14]: 26%; biofilm formation inhibition [15]: 24%; biofilm formation inhibition [16]: 27% |
